Experimental data taken from patent publication US5830994A, “Peptide derivatives of alpha-MSH and their application” (Institut Europeen De Biologie Cellulaire, priority 1993, dated 1998).

Columns and labels:
[1] = tested on: DNFB contact hypersensitivity; assay: Dinitrofluorobenzene (DNFB) contact hypersensitivity test, ear thickening after topical application; assay type: in vivo, C57 BL/6JICO mice; details: for % suppression relative to the control batch, LEFT EAR / % suppression relative to the control batch, RIGHT EAR / MEAN VALUES LEFT EAR % INCREASE / MEAN VALUES RIGHT EAR % INCREASE: 5 days
Source text: Study of the Anti-allergic activity of the Peptide compounds, by the Dinitrofluorobenzene (DNFB) contact Hypersensitivity test.
Female C57 BL/6JICO mice 5 weeks old are separated into ten batches of ten animals (five per cage), with free access to water and food, subjected to a photoperiod of twelve hours of light per twenty-four hours.
The animals in batches 1 to 6 receive daily and per topical application on the shaved skin of the back, the products to be studied, dissolved in propylene glycol, in a constant volume of 50 μl and for five consecutive days.
PIII--Batches 1 - 2 - 3--2.5 μg --0.5 μg--0.1 μg--mouse/day
PIV--Batches 4 - 5 - 6 - 2.5μg--0.5 μg--0.1 μg--mouse/day
The animals of the X batch serve as controls (and receive only, 50 μl of propylene glycol per topical application for five days).
(§1) On the fifth day, thirty minutes after the last application, all the mice are sensitized with 25 μl of DNFB (2.4-Dinitro-1-FluoroBenzene (FLUKA CHEMIKA PURUM at 97% batch No. 33820890) at 2% in a 4 to 1 mixture of acetone (SDS ref. 0510) and triolein (FLUKA) applied topically over the dorsal region of shaved skin.
On the sixth day, a new sensitization is carried out by application of DNFB.
On the eleventh day, the thickness of the ears of the mice is measured with the aid of a micrometer (ROCH 0 to 25 mm in 1/100 mm) in order to obtain base values, then the ears are stimulated by topical application of 20 μl of DNFB at 0.8%.
(§2) On the twelfth day, the thickness of the ears is again measured. The mean value of thickening of the ears is established for the mice in the batches which had received the products to be studied, as well as for the mice in the control batch.
The percentage of suppression where appropriate will be expressed by the following calculation: [formula]
Comparative study of the activity of Lipoyl-Peptides and of their peptide structures on DNFB contact hypersensitivity.
The method used is that described above in Example 10.
Contact hypersensitivity induced in mice by Dinitrofluorobenzene--"DNBF"
Batch I: (DL) - Lip - Glu - His - D.homoPhe - Arg - Trp - Gly - NH2
Batch II: H - Glu - His - D.homoPhe - Arg - Trp - Gly - NH2
Batch III: Control=(DL) - Lipoic Acid
Solvent: propylene Glycol previously used as control in Example 10.
Control: dose used"DL-Lipoic-Acid"=10 ng per mouse and per day.
as §1, with “were” for “are”, “05510)” for “0510)”
as §2, with “batch. The percentage of suppression where appropriate will be expressed by the following calculation: [formula]” for “batch.”

cultured embryonic cells = assay: Effects of Peptides PI and PIV on cultured embryonic cells in vitro (melanocytes, neurons, muscular cells, fibroblasts); assay type: cell-based
Method: Effects of Peptides PI and PIV on cultured embryonic cells in vitro . . . "Melanocytes - Neurons - Muscular Cells and Fibroblasts . . . " dose used 1 μg/ml (defined by dose/response trials)
1 single treatment during the innoculation of the cells or several successive treatments (renewal of the medium every 48 hours) duration of culture: 6 to 8 days
1) Counting of the melanocytes
2) Assay of melanin by HPLC and/or by spectrophotometry
Daily observation of the cultures
Ultrastructure by transmission electron microscopy.

## [(DL) Lip] His - D.homoPhe - Arg - Trp - NH2 [PIV]
[1]; 0.1 μg/mouse/day topical
  % suppression relative to the control batch, LEFT EAR: -65.46%
  % suppression relative to the control batch, RIGHT EAR: -65.46%
  MEAN VALUES LEFT EAR % INCREASE: 20.35%
  MEAN VALUES RIGHT EAR % INCREASE: 20.35%
[1]; 0.5 μg/mouse/day topical
  % suppression relative to the control batch, LEFT EAR: -69.40%
  % suppression relative to the control batch, RIGHT EAR: -69.40%
  MEAN VALUES LEFT EAR % INCREASE: 18.03%
  MEAN VALUES RIGHT EAR % INCREASE: 18.03%
[1]; 2.5 μg/mouse/day topical
  % suppression relative to the control batch, LEFT EAR: -69.47%
  % suppression relative to the control batch, RIGHT EAR: -69.47%
  MEAN VALUES LEFT EAR % INCREASE: 17.99%
  MEAN VALUES RIGHT EAR % INCREASE: 17.99%
[1]; overall, Example 10 (2.5, 0.5, 0.1 μg/mouse/day)
  suppression of the cutaneous hypersensitivity reaction induced by DiNitroFluoroBenzene: 68.11%
Cultured embryonic cells; 1 μg/ml
  effect on precursor embryonic cells not yet determined in the melanoblastic pathway (in words): no effect
  effect on the melanoblasts already induced (in words): stimulating effect
  number of melanocytes increases by a factor: ≥ 2
  toxic effect on astroglial cells (in words): No toxic effect
  toxic effect on fibroblasts, mesenchyme (in words): no toxic effect
Cultured embryonic cells; 1 μg/ml, after eight days of culture
  quantity of biosynthesized melanin per cell: 1.4 ng/cell
Cultured embryonic cells; 1 μg/ml, even at an ultrastructural level
  toxic effect on myoblasts (in words): no toxic effect
Cultured embryonic cells; qualitative and quantitative
  effect on melanogenesis, summary (in words): stimulate melanogenesis
Cultured embryonic cells; summary
  cytotoxic effect on the various cell categories (in words): no cytotoxic effect
  stimulating effect on the other cell types: neurons, astrocytes, muscle cells, fibroblasts (in words): without stimulating effect
